# Like-named read-outs stand apart in the source and are kept apart here.
# Columns and labels:
# reverse transcriptase = target: T1, reverse transcriptase (Human immunodeficiency virus type 1 group M subtype B, UniProt P04585); assay: Biochemical reverse transcriptase assay (Reverse Transcriptase Assay, colorimetric, Roche)
# T1 construct: negative control (mixture without reverse transcriptase); purchased Roche Diagnostics GmbH, Mannheim, Germany
# Protocol: The “Reverse Transcriptase Assay, colorimetric” (Roche Diagnostics GmbH, Mannheim, Germany) is used in accordance with the manufacturer's information. The test substances are dissolved in DMSO and are used in the test diluted in 5-fold steps (final DMSO concentration 1%). The resulting values of the photometric evaluation (405/492 nm) are less than 0.1 for the negative control (mixture without reverse transcriptase) and are in the region of 1.5 for the positive control (mixture without test substance). The IC50 values of the test substances are determined as the concentration of the test substance dilution at which the measured optical density is 50% of the positive control.
# HIV-1LAI = assay: H9 assay with wild-type HIV-1 (HIV-1LAI supernatant infection, AlamarBlue); assay type: cell-based; conditions: Human immunodeficiency virus 1, 120 h, H9 cells, 10% FCS, 5 days
# Protocol: For the mixture for a 96-well MTP, 3 million PBLs are pelleted, suspended in 1 ml of RPMI 1640 medium/10% FCS and incubated together with a suitable amount of HIV-1LAI (NIH AIDS Research & Reference Reagent Program, Germantown, USA) at 37° C. for 2 hours (pellet infection). Unadsorbed viruses are subsequently washed out with PBS, and the infected cells are pelleted again and suspended in 18 ml of RPMI 1640 medium/10% FCS/interleukin-2 (40 U/ml). 180 μl thereof are pipetted into each well of a white 96-well MTP with 20 μl of test substance in suitable dilution. Alternatively, after preparation of the substance dilutions in the MTP, the HIV is pipetted in together with the cells and is not washed out again (supernatant infection). In order to avoid edge effects, the wells at the edge of the MTP are not used for substance dilutions. The second vertical row of the MTP contains only infected cells (virus control) and the eleventh vertical row only uninfected cells (cell control), in each case in RPMI 1640 medium/10% FCS/interleukin-2 (40 U/ml). The other wells of the MTP contain the compounds of the invention in various concentrations starting from the third vertical row, from which the test substances are diluted in 3-fold steps up to the tenth vertical row 3^7-fold. The test substances are dissolved in DMSO, whereby the final DMSO concentration in the test mixture is 1%. The test mixtures are incubated at 37° C./5% CO2. After 5 and 7 days, 50 μl of cell-free supernatant are removed from each well to determine the amount of p24 present by means of a p24 ELISA (HIV-1 p24^CA Antigen Capture Assay Kit, NCI-Frederick Cancer Research and Development Center, Frederick, USA). From the resulting values of the photometric evaluation (450/620 nm) the EC50 values of the test substances are determined as the concentration at which the amount of p24 is 50% of the untreated infected cells.
# Alternatively, H9 cells (ATCC, Wesel, Germany) are employed instead of PBLs for testing the test substances. H9 cells are incubated in RPMI 1640 medium with 2% or 10% FCS as a HIV-1LAI supernatant infection at 37° C./5% CO2, (20 μl of substance dilution and 80 μl of cells/virus per well) in accordance with the pattern described above for 5 days. Subsequently, 10 μl of AlamarBlue (Invitrogen, Karlsruhe, Germany) are added to each well, and the MTPs are incubated at 37° C. for 3 hours before the fluorimetric evaluation takes place (544/590 nm). The resulting values are about 40 000 for the untreated uninfected cells and about 7000 for the untreated infected cells. In the low concentration range, the EC50 values of the test substances are determined as the concentration at which the fluorescence is 50% of the untreated uninfected cells (in each case subtracting the values of the untreated infected cells). In addition, in the high concentration range, the CC50 values of the test substances are determined as the concentration at which the fluorescence is 50% of the untreated uninfected cells (in each case subtracting the values of the untreated infected cells).
# [1] = system: HIV-1NL4-3 reporter virus, wild-type; assay: Light assay with wild-type HI reporter virus in MT4 7F2 cells; assay type: cell-based; conditions: Human immunodeficiency virus 1, 120 h, read-out: EC50 (nM) MT4 7F2 cells HIV-1NL4-M3 wt 2% FCS
# Protocol: (§1) For the mixture for a 96-well MTP, 3 million MT4 7F2 cells are pelleted, suspended in 1 ml of RPMI 1640 medium without phenol red (Invitrogen, Karlsruhe, Germany)/10% FCS/10% AIM-V (Invitrogen, Karlsruhe, Germany) and incubated together with a suitable amount of the corresponding HIV-1NL4-3 reporter virus at 37° C. for 2 hours (pellet infection). Unadsorbed viruses are subsequently washed out with PBS, and the infected cells are pelleted again and suspended in 8 ml of RPMI 1640 medium without phenol red/2% or 10% FCS/10% AIM-V. 80 μl thereof are pipetted into each well of a white 96-well MTP with 20 μl of test substance in suitable dilution. To avoid edge effects, the wells on the edge of the MTP are not used for substance dilutions. The second vertical row of the MTP contains only infected cells (virus control) and the eleventh vertical row only uninfected cells (cell control), in each case in RPMI 1640 medium without phenol red/2% or 10% FCS/10% AIM-V. The other wells of the MTP contain the compounds of the invention in various concentrations starting from the third vertical row, from which the test substances are diluted in 3-fold steps up to the tenth vertical row 3^7-fold. The test substances are dissolved in DMSO, whereby the final DMSO concentration in the test mixture is 1%. The test mixtures are incubated at 37° C./5% CO2 for five days and, after the addition of 15 μl of Lu164 substrate (5 mg/ml coelenterazine dissolved in 30 μM glutathione/DMSO, 100 mM NaCl, 1M MES, 100 mM glutathione), evaluated by luminometry. The resulting values are in the region of 1 000 000 RLUs (relative light units) for the virus control and 300 to 400 RLUs for the cell control. The EC50 values of the test substances are determined as the concentration at which the virus replication measured in RLUs is 50% of the untreated infected cells.
# [2] = system: HIV-1NL4-3 reporter virus, reverse transcriptase mutations K103N-Y181C; assay: Light assay with inhibitor-resistant HI reporter virus in MT4 7F2 cells; assay type: cell-based; conditions: Human immunodeficiency virus 1, 120 h, read-out: EC50 (nM) MT4 7F2 cells HIV-1NL4-M3 K103N-Y181C 2% FCS
# Protocol: as §1
# [3] = colorimetric RT assay, final DMSO 1%, read-out: IC50 (nM) RT assay
Compound,IC50 (reverse transcriptase; [3]),EC50 (HIV-1LAI),EC50 [1],EC50 [2],IC50 (reverse transcriptase)
"O=C1CN(C(=O)c2nc(-c3cccc(Cl)c3)c(-c3cc(F)cc(Cl)c3)s2)CN1 [Example 3, 1-{[5-(3-Chloro-5-fluorophenyl)-4-(3-chlorophenyl)-1,3-thiazole-2-yl]carbonyl}imidazolidin-4-one]",20 nM,12 nM,0.6 nM,60 nM,
N#Cc1cc(F)cc(-c2sc(C(=O)N3CNC(=O)C3)nc2-c2ccc(F)c(Cl)c2)c1 [Example 11],,4 nM,5 nM,69 nM,13 nM
"O=C1CN(C(=O)c2nc(-c3cccc(Cl)c3)c(-c3cccc(Cl)c3)s2)CN1 [Example 20, 1-{[4,5-Bis(3-chlorophenyl)-1,3-thiazole-2-yl]carbonyl}imidazolidin-4-one]",47 nM,7 nM,1 nM,149 nM,

# Reference: patent US8575357B2, “Substituted (thiazolyl-carbonyl)imidazolidinones and use thereof” (AiCuris GmbH & Co. KG, priority 2009, dated 2013)
